# In US6900193B1, “Structural modification of 19-norprogesterone I: 17-α-substituted-11-β-substituted-4-aryl and 21-substituted 19-norpregnadienedione as new antiprogestational agents” (The United States of America as represented by the …, priority 1996, dated 2005):
# “Also recorded” adds a separate entry of the source.
# What was measured:
# [1] = target: T1, progesterone receptor (estrogen-primed rabbit uterus) (Oryctolagus cuniculus, UniProt P06186); assay: Relative binding affinity, progesterone receptor; conditions: for BINDING AFFINITY Progester: Table 2; for BINDING AFFINITY Progester / RELATIVE BINDING AFFINITY Progesterone: progesterone = 100%; for binding affinities compared with the standard, compound 69B: progesterone receptor implied (rabbit or human isoform A not specified); for binding affinity for the progesterone receptor, in words: rabbit uterine, versus CDB-2914 (69B) where stated
# T1 construct: preparation of cytosols for the progesterone and glucocorticoid receptor assays; from tissue; host or cells: uterus of estradiol-primed immature female New Zealand White rabbits (cytosol)
# T1 sequence (P06186 1-930): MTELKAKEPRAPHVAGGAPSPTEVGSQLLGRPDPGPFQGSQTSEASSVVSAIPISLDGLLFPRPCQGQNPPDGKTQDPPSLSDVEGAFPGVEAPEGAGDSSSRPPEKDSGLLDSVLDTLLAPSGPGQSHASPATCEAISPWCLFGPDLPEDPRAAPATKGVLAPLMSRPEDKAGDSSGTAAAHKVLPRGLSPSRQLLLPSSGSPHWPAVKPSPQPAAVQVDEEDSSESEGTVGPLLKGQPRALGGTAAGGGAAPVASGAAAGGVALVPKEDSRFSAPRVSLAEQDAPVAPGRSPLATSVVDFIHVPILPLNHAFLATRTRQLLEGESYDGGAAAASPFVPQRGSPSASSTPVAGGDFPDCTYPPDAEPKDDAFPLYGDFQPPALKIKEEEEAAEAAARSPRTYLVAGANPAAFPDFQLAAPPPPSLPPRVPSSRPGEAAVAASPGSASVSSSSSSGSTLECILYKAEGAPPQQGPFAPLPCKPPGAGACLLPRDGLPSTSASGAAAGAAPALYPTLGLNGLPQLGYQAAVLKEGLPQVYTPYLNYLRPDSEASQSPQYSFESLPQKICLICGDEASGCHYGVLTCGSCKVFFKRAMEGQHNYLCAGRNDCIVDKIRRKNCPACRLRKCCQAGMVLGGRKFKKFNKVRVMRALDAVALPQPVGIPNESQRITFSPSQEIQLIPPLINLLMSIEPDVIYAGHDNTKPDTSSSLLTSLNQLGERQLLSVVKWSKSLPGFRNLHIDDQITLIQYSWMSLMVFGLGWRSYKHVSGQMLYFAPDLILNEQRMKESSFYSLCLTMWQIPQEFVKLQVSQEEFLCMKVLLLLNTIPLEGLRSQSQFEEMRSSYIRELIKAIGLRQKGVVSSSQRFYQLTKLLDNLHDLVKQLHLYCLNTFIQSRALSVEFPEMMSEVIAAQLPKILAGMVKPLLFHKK
# [2] = target: T2, glucocorticoid receptor (estrogen-primed rabbit thymus) (Oryctolagus cuniculus, UniProt P59667); assay: Relative binding affinity, glucocorticoid receptor; conditions: for BINDING AFFINITY Glucocortic: Table 2; for BINDING AFFINITY Glucocortic / RELATIVE BINDING AFFINITY Glucocorticoid: estrogen-primed rabbit thymus, dexamethasone = 100%; for binding affinity for the glucocorticoid receptor, in words: rabbit thymus, versus CDB-2914 (69B) where stated
# T2 construct: preparation of cytosols for the progesterone and glucocorticoid receptor assays; from tissue; host or cells: thymus of estradiol-primed immature female New Zealand White rabbits (cytosol)
# T2 sequence (P59667 1-772): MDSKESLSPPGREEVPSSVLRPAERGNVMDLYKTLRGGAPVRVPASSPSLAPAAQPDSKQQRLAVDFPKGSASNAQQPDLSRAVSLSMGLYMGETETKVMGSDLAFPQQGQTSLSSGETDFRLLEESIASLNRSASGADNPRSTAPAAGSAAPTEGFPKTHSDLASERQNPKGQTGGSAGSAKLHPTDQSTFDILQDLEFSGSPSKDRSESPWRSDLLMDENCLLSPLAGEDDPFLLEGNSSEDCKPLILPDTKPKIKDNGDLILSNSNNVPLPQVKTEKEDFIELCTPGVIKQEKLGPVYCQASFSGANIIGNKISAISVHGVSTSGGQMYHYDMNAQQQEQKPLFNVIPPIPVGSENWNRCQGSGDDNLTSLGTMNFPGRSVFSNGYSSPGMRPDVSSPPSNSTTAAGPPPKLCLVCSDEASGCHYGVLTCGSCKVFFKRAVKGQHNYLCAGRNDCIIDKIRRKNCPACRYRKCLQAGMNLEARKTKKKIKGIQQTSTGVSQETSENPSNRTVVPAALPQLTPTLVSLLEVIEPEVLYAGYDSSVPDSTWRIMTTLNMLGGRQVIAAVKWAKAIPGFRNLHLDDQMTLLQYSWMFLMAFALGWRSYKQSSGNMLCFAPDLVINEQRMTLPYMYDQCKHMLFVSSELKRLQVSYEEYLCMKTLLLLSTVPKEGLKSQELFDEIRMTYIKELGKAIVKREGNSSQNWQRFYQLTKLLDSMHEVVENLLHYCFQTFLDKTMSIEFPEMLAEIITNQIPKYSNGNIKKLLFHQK
SMILES,BINDING AFFINITY Progester ([1]; estrogen-primed rabbit uterus) [%],"binding affinities compared with the standard, compound 69B [1]","binding affinity for the progesterone receptor, in words [1]",BINDING AFFINITY Glucocortic [2] [%],"binding affinity for the glucocorticoid receptor, in words [2]",RELATIVE BINDING AFFINITY Progesterone ([1]; estrogen-primed rabbit uterus) [%],RELATIVE BINDING AFFINITY Glucocorticoid [2] [%],"RELATIVE BINDING AFFINITY Progesterone ([1]; Table 3, immature estrogen-primed rabbit uterus)"
"COCC(=O)[C@@]1(OC)CC[C@H]2[C@@H]3CCC4=CC(=O)CCC4=C3[C@@H](c3ccc(N(C)C)cc3)C[C@@]21C [Compound 113a, 17α,21-Dimethoxy-11β-[4-(N,N-dimethylamino)phenyl]-19-norpregna-4,9-diene-3,20-dione]",117,binding affinities greater than that observed for the standard,high binding affinity,62,reduced binding affinity,,,
"CC(=O)O[C@]1(C(C)=O)CC[C@H]2[C@@H]3CCC4=CC(=O)CCC4=C3[C@@H](c3ccc(N4CCCCC4)cc3)C[C@@]21C [Compound 71, 17α-Acetoxy-11β-[4(N-Piperidino)phenyl]-19-norpregna-4,9-diene-3,20-dione]",123,binding affinities greater than that observed for the standard,,20,low binding affinity,,,
"CC(=O)O[C@]1(C(=O)CO)CCC2C3CCC4=CC(=O)CCC4=C3C(c3ccc(N(C)C)cc3)C[C@@]21C (stereo partly drawn) [Compound 41, 17α-acetoxy-21-hydroxy-11β-[4-(N,N-dimethylamino)phenyl]-19-norpregna-4,9-diene-3,20-dione]",,,,,,62,71,
"CC(=O)OCC(=O)[C@@]1(OC(C)=O)CCC2C3CCC4=CC(=O)CCC4=C3C(c3ccc(N(C)C)cc3)C[C@@]21C (stereo partly drawn) [Compound 15, 17α,21-diacetoxy-11β-[4-(N,N-dimethylamino)phenyl]-19-norpregna-4,9-diene-3,20-dione]",,,,,substantial reduction in glucocorticoid binding affinity; also recorded: low binding affinity,103,51,
"COCC(=O)C1(OC(C)=O)CCC2C3CCC4=CC(=O)CCC4=C3C(c3ccc(N4CCCCC4)cc3)CC21C (stereo not drawn) [Compound 123a, 17α-Acetoxy-1113-[4-(N-piperidino)phenyl]-21-methoxy-19-norpregna-4,9-diene-3,20-dione]",174,,,11,,,,
CC(=O)O[C@]1(C(=O)CCl)CCC2C3CCC4=CC(=O)CCC4=C3C(c3ccc(N(C)C)cc3)C[C@@]21C (stereo partly shown) [Compound 14A],,binding affinities greater than that observed for the standard,did not show significant differences,,,127,90,
"CN(C)c1ccc(C2CC3(C)C(CCC34OCC4=O)C3CCC4=CC(=O)CCC4=C23)cc1 (stereo not drawn) [Compound 12, 17-Spirooxetano-3′-oxo-11β-[4-(N,N-dimethylamino)phenyl]-19-norpregna-4,9-dien-3-one]",,binding affinities greater than that observed for the standard,,,,261,32,
"CC(=O)O[C@]1(C(=O)CF)CCC2C3CCC4=CC(=O)CCC4=C3C(c3ccc(N(C)C)cc3)C[C@@]21C (stereo partly drawn) [Compound 13, 17α-acetoxy-21-fluoro-11β-[4-(N,N-dimethylamino)phenyl]-19-norpregna-4,9-diene-3,20-dione]",,binding affinities greater than that observed for the standard,did not show significant differences,,,125,109,
"CC(=O)O[C@]1(C(C)=O)CC[C@H]2[C@@H]3CCC4=CC(=O)CCC4=C3[C@@H](c3ccc(N(C)C)cc3)C[C@@]21C [Compound 69B, 17α-acetoxy-11β-(4-N,N-dimethylaminophenyl)-19-norpregna-4,9-diene-3,20-dione, reference compound]",122,,,114,,122,114,114- %
"CC(=O)OCC(=O)[C@@]1(OC(C)=O)CC[C@H]2[C@@H]3CCC4=CC(=O)CCC4=C3[C@@H](c3ccc(C(C)=O)cc3)C[C@@]21C [Compound 106b, 17α,21-Diacetoxy-11β-(4-acetylphenyl)19-norpregna-4,9-diene-3,20-dione]",136,binding affinities greater than that observed for the standard,,14,,,,
CC#C[C@]1(O)CC[C@H]2[C@@H]3CCC4=CC(=O)CCC4=C3[C@@H](c3ccc(N(C)C)cc3)C[C@@]21C [mifepristone],,,greater binding affinity,,greater binding affinity,,,
